Read-outs that look alike come from different tables or passages of the source. Marks after values point to notes of the source that are not given here. Starred links: 1 amine or outer side, 2 acyl side, 3 side chain; linkers in the order of their positions; H or OH if unused. Non-standard residues stand in square brackets, D forms with d. Residues, ends and D or L forms follow the SMILES beside them. aza(4-F)Phe = aza-4-fluorophenylalanine (alpha-carbon replaced by nitrogen, para-fluoro), O=C(N(Cc1ccc(F)cc1)N[*:1])[*:2]; X1 = O=C([C@@H](Cc1ccccc1)NS(=O)(=O)N(Cc1ccc(F)cc1)N[*:1])[*:2]; azaTyr = O=C(N(Cc1ccc(O)cc1)N[*:1])[*:2]
How the values were obtained:
CD36 [1] = molecular target: T1, CD36 (Rattus norvegicus, UniProt Q07969); assay: Competition with [125I]-Tyr-Bpa-Ala-hexarelin tracer for CD36 binding on purified rat heart membranes; details: purified membranes from rat heart, read-out: CD36 binding affinity IC50
T1 construct: purified membranes from rat heart as a source of CD36; from tissue; host or cells: rat heart (purified membranes)
Protocol: The ability of [(4-F)AsF^4]-GHRP-6 (3c) to compete with the radiolabeled [^125I]-Tyr-Bpa-Ala-hexarelin used as tracer for CD36 binding was tested on purified membranes from rat heart as a source of CD36 [36].

[2] = test system: NO overproduction in J774 macrophage cell line elicited by TLR-2 agonist (R-FSL-1); assay: Modulation of TLR2 agonist (R-FSL-1)-induced overproduction of nitric oxide in J774 macrophage cell line (nitrite, DAN fluorescence); format: cell-based, murine; details: J774 macrophages; for NO inhibition Fold of 1: 2 h pre-incubation, overnight stimulation with 300 ng/mL R-FSL-1; for Inhibitory effect on R-FSL-elicited NO production (in words): R-FSL-1
Protocol: The murine J774A.1 macrophage cell lines were obtained from American Type Cell Collection (ATCC #TIB-67), seeded at 1.5 × 10^5 cells/well in Dulbecco’s modified eagle media (DMEM) containing 100U/mL of penicillin (Pen) and 100 μg/mL of streptomycin (Strep) on a 48-well plate (Costar® #3548), and incubated at 37 °C with 5% CO2. After 2 h, the medium of adhered cells was changed to DMEM-Pen/Strep containing 0.2% of bovine serum albumin (BSA), and supplemented with either azasulfurylpeptide 3a–f or [azaK^6]-GHRP-6 as a negative control. After 2 h of pre-incubation, the cells were stimulated overnight with 300 ng/mL of R-FSL-1. Supernatants were collected for fluorescence determination of nitrite using 2,3-diaminonaphtalene (DAN). Briefly, 25 μL of sample was incubated with 0.5 μg of DAN in a 100 μL final volume of phosphate buffer (50 mM, pH 7.5) at rt in the dark. After 15 min, the reaction was stopped with 20 µL of NaOH (2.8N) and the plate was read using a fluorescence plate reader (TECAN® Safire, λexc 365 nm and λem 430 nm).

[3] = test system: TNFα secretion in peritoneal macrophages; assay: TNFα secretion by peritoneal macrophages stimulated with R-FSL-1 (ELISA); format: cell-based, C57BL/6 mice; details: 1 µM peptide, 2 h pretreatment, R-FSL-1 300 ng/mL, NA: no activity
Protocol: (§1) Peritoneal macrophage cells from C57BL/6 mice were harvested from sterile DMEM cell-culture medium (Wisent # 319-005-CL), allowed to adhere for 1 h at 37 °C in a 5% CO2 atmosphere, and washed twice with PBS to remove non-adherent cells. Macrophages (0.5 × 10^6 cells/well) were plated in 48 well-culture plates with DMEM containing 0.2% of bovine serum albumin (BSA), pretreated for 2 h with azasulfurylpeptides 3b–e or [azaK^6]-GHRP-6 (1 µM), before stimulation with a TLR2 ligand: R-FSL-1 (Invivogen® #L7022) at 300 ng/mL interferon gamma (IFNγ R&D Systems® Minneapolis, MN, USA # 172-5201) at 20 ng/mL for 4 or 24 h. The supernatants were recovered, and ELISA (eBioscience® #88-7324; 88-7391) was performed to determine the levels of proinflammatory cytokine and chemokine (TNFα, MCP-1). The effect on NF-κB activation was documented on cell lysates after 0, 5, 10, 15 and 30 min stimulation with R-FSL1, using NF-κB p65/RelA specific ELISA-based assay (eBioscience® #85-86083). The results were expressed as mean ± SEM and analyzed statistically by a one-way analysis of variance (ANOVA) with a Dunnett as a post-test. Level of significance was set at P < 0.05.

[4] = test system: subretinal IBA-1 positive cells (activated microglia/macrophages); assay: Blue-light illumination model of retinal inflammation: IBA-1-positive cells in the subretinal space; format: in vivo; details: ApoE−/− mice, 1000 lux blue light 5 d, 289 nmol/kg s.c. for 7 consecutive days, vs illuminated vehicle-treated mice, n = 3–5
Protocol: Apo E deficient (ApoE^−/−) mice were obtained from The Jackson Laboratory (Bar Harbor, ME, USA). Animals were housed under 12 h light/dark cycles and fed ad libitum with a standard rodent diet. All experimental procedures were done in accordance with the Animal Ethics Committee at Université de Montreal (CDEA, project 12-012 approved on 26 January 2013) and the Canadian Council on Animal Care guidelines for use of experimental animals.
Three to four-month-old ApoE^−/− mice were exposed to blue LED-light (Yescom USA, Inc., City Of Industry, CA, USA) for 5 d at 1000 lux illumination without previous dark-adaptation. For pupil dilatation, ophthalmic atropine solution 1% (Alcon, Fort Worth, TX, USA) was applied to both eyes daily. Aza- and azasulfurylpeptides 1, 2 and 3c or [azaK^6]-GHRP-6 (289 nmol/kg) were administered subcutaneously at 24 h following blue-light exposure for 7 consecutive days. At the end of the blue-light exposure period, the mice were maintained on a 12:12 h light: dark cycle for 3 days, before being sacrificed. Enucleated eyes were fixed in 4% paraformaldehyde (PFA) for 15 min at rt and sectioned at the limbus; the anterior segments were discarded. The posterior eye cups consisting of retinal pigment epithelium (RPE)/choroid/sclera complex were collected and prepared for immunofluorescence analysis.
RPE/choroid/sclera flat-mounts were treated with PBS solution containing 0.1% Triton 100× and 10% fetal bovine serum (FBS) or 5% BSA (saturation buffer) for 45 min. Specimens were incubated overnight at 4 °C with primary antibodies diluted in saturation buffer. Immunofluorescence was performed using polyclonal rabbit anti-IBA-1 as marker of activated cells. […] Flatmounts were analyzed using an IX81 Olympus fluorescence microscope (Richmond Hill, ON, Canada). […]
IBA-1–stained cells were counted on flatmounts from control and illuminated mice injected daily with 0.9% NaCl or with aza- and azasulfurylpeptides 1, 2 and 3c or [azaK^6]-GHRP-6 (289 nmol/kg). Cell numbers were expressed as the mean number of IBA-1–positive cells in subretinal space. […]

CD36 [5] = molecular target: T1, CD36; details: read-out: CD36 binding affinity IC50; cited from earlier work
[6] = test system: mouse choroidal explants (RPE/choroid/sclera complex); assay: Microvascular sprouting on choroid explant as index of angiogenesis; format: cell-based; details: 10^−6 M, 24 h, Matrigel-embedded mouse choroidal explants, n = 3–4
Protocol: Choroidal explants were set as described previously. Briefly, enucleated mice eyes with and without treatment with aza- and azasulfurylpeptides 1, 2 and 3c or [azaK^6]-GHRP-6 were collected and dissected to obtain the complex consisting of the RPE/choroid/sclera, which was cut in 16 explant fragments and cultured in 20 µL of Matrigel (BD biosciences, San Jose, CA, USA) in 24-wells plates (Sarstedt Inc., St. Leonard, QC, Canada). […] Phototographs of explants were taken under microscopy (T0 and T24 h). The explants were washed with endothelial basal medium (EBM) and incubated in EBM with NaCl or CD36 ligands at 10^−6 M for 24 h. The sprouting surface was assessed by image analysis using imagen J software. Ratios (sprouting surface at T24 h, sprouting surface at T0)/sprouting surface at T0 were determined. Numerical results were expressed as mean ± SEM. Data were compared using one-way ANOVA with Dunnett’s post-test. P < 0.05 was considered statistically significant (Prism software version 5.01; graphpad Software, San Diego, CA, USA).

[7] = test system: MCP-1 secretion in peritoneal macrophages; assay: MCP-1 secretion by peritoneal macrophages stimulated with R-FSL-1 (ELISA); format: cell-based, C57BL/6 mice; details: 1 µM peptide, 2 h pretreatment, R-FSL-1 300 ng/mL, NA: no activity
Protocol: as §1

T1 sequence (Q07969 whole entry): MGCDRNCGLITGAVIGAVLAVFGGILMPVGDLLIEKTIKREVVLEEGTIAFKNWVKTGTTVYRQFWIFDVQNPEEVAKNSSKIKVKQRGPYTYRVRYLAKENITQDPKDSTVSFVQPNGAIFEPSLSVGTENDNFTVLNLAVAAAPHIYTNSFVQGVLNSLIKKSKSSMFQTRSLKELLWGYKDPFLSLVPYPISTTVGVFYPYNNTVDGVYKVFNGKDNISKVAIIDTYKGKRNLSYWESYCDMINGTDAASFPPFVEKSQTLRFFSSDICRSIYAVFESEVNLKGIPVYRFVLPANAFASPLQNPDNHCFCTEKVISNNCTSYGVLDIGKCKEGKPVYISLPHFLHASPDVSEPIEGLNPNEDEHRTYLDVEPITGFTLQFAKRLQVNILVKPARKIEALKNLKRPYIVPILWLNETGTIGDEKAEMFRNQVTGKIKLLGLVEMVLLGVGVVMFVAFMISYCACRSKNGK

Compound	NO inhibition Fold of 1 [2]	Inhibitory effect on R-FSL-elicited NO production (in words) [2]	TNFα inhibition Fold of 1 [3]	Decrease of IBA-1+ cell accumulation in the subretina [4] [%]	further results
C[C@H](NC(=O)[C@@H](Cc1c[nH]c2ccccc12)NC(=O)[C@@H](N)Cc1c[nH]cn1)C(=O)NN(Cc1ccc(F)cc1)S(=O)(=O)N[C@H](Cc1ccccc1)C(=O)N[C@@H](CCCCN)C(N)=O [3c, H-His-D-Trp-Ala-(4-F)AsF-D-Phe-Lys-NH2] (H-H[dW]A[X1]K-NH2)					IC50 (CD36 [1]): 2.53 µM
H-Ala-D-Trp-Ala-AsF(4-F)-D-Phe-Lys-NH2 [3f]	-0.04 Fold of 1	limited inhibitory effect			
H-His-D-Trp-Ala-(4-MeO)AsF-D-Phe-Lys-NH2 [3d]	1.5 Fold of 1		1.5 Fold of 1		
H-His-D-Trp-Ala-AsF(4-HO)-D-Phe-Lys-NH2 [3b]	0.2 Fold of 1				
H-His-D-Trp-Ala-AsF-D-Phe-Lys-NH2 [3a]	1.6 Fold of 1	reduced significantly NO production		50	
H-His-D-Trp-Ala-AsNal-D-Phe-Lys-NH2 [3e]	0.06 Fold of 1	limited inhibitory effect			
His-D-Trp-Ala-aza(4-F)Phe-D-Phe-Lys-NH2 (H-H[dW]A[aza(4-F)Phe][dF]K-NH2; SMILES C[C@H](NC(=O)[C@@H](Cc1c[nH]c2ccccc12)NC(=O)[C@@H](N)Cc1c[nH]cn1)C(=O)NN(Cc1ccc(F)cc1)C(=O)N[C@H](Cc1ccccc1)C(=O)N[C@@H](CCCCN)C(N)=O) [compound 2, semicarbazide analog of GHRP-6, CD36 ligand]					IC50 (CD36 [5]): 6.06 µM
His-D-Trp-Ala-aza(4-F)Phe-D-Phe-Lys-NH2 [compound 2, semicarbazide analog of GHRP-6, CD36 ligand]	1.4 Fold of 1		0.87 Fold of 1	50	Effect on choroidal microvascular sprouting (in words) [6]: inhibited microvascular sprouting; MCP-1 inhibition Fold of 1 [7]: 0.97 Fold of 1
His-D-Trp-Ala-azaTyr-D-Phe-Lys-NH2 (H-H[dW]A[azaTyr][dF]K-NH2; SMILES C[C@H](NC(=O)[C@@H](Cc1c[nH]c2ccccc12)NC(=O)[C@@H](N)Cc1c[nH]cn1)C(=O)NN(Cc1ccc(O)cc1)C(=O)N[C@H](Cc1ccccc1)C(=O)N[C@@H](CCCCN)C(N)=O) [compound 1, semicarbazide analog of GHRP-6, CD36 ligand]					IC50 (CD36 [5]): 1.9 µM
His-D-Trp-Ala-azaTyr-D-Phe-Lys-NH2 [compound 1, semicarbazide analog of GHRP-6, CD36 ligand]	1 ^a Fold of 1		1 ^b Fold of 1	50	Effect on choroidal microvascular sprouting (in words) [6]: inhibited microvascular sprouting; MCP-1 inhibition Fold of 1 [7]: 1 ^c Fold of 1
